{"source": "patent US6395255B1", "about": "“Radiolabeled vasoactive intestinal peptide analogs for imaging and therapy” (Thomas Jefferson University, priority 1998, dated 2002)", "key": {"[1]": {"test_system": "colonic adenocarcinoma", "settings": "cited from earlier work"}, "[2]": {"test_system": "internal anal sphincter (IAS) smooth muscle", "test": "Functional assay using opossum internal anal sphincter smooth muscle strips (fall in resting tension)", "format": "tissue-based, opossums (Didelphis virginiana)", "settings": "at 10^−6 mol/L; 100% = maximal relaxation with 5 mmol/L EDTA"}, "[3]": {"test": "Tissue distribution and gamma camera imaging in nude mice bearing LS174T tumors", "settings": "athymic NCr nude, mouse, iv, total radioactivity, 24 h postinjection, mean ± SD, n = 5; for tissue uptake at 24 h: Biodistribution", "method": "Tissue Distribution Studies\n(§1) The ability of ^99MTc-TP3654 to detect human colorectal carcinoma was examined in nude mice.\n(§2) Human colorectal cancer cells LS 174T (ATCC) were grown in culture and 5×10^6 viable cells were implanted intramuscularly in the right thighs of athymic NCr nude mice that weighed 20-25 g. Tumors were grown to no more than 1 cm in diameter. Each animal received approximately 700 Ci of ^99mTc-TP3654 (1450 Ci/mrnol) in 200 1, of saline through a lateral tail vein. Exact activity injected was determined by measuring the syringe, before and after injection, in a calibrated ionization chamber (Capintech, Ramsey, N.J.). A suitable standard of ^99mTc was prepared at the time of injection.\n(§3) At 4 or 24 h later, animals were killed and imaged using a GE STARCAM gamma camera (Milwaukee, Wis.) equipped with a low-energy parallel-hole collimator and a dedicated computer. Tissues were dissected and weighed, and associated radioactivity was counted (Packard 5000 series gamma counter), along with a standard, in duplicate. Results were calculated as percentage injected dose per gram of tissue (% ID/g) and were analyzed by using Student t test.\n(§4) A tissue distribution study was performed in a manner similar to that for ^99mTc-TP3654.\n(§5) For animal tissue distribution studies, a protocol similar to that for ^99mTc-TP3654 was followed."}, "[4]": {"test_system": "LS174T human colorectal tumor", "test": "Tissue distribution and gamma camera imaging in nude mice bearing LS174T tumors", "settings": "for delineation of tumor in gamma camera image: nude mice bearing LS174T tumor in right thigh, 24 h after injection", "method": "Tissue Distribution Studies\nas §1, §2, §3, §4, §5"}, "[5]": {"test_system": "VIP receptor", "test": "Receptor blocking with unlabeled VIP-28 or TP3654 in LS174T tumor-bearing nude mice", "format": "in vivo", "settings": "50 μg unlabeled peptide intravenously 30 min before tracer, 24 h, vs not pretreated mice", "experimental": "Receptor Blocking […] Mice were killed 24 h later, and percentage injected dose per gram of tissues was determined. Data were compared to 24 h distribution in mice (n=5) given 700 μCi ^99mTc-TP3654 but not pretreated with unlabeled VIP or TP3654."}, "[6]": {"set-up": "species or system Sprague-Dawley rats", "settings": "Sprague-Dawley, rat, in vivo, iv", "experimental": "Blood Clearance in Rats Three Sprague-Dawley rats, each weighing approximately 250 g, were injected through a lateral tail vein with 1 mCi ^99mTcTP3654 and serial blood samples were drawn, in triplicate, through the other lateral tail vein at 1, 5, 10, 15 and 30 min and then at 1, 2, 4, 6, 18 and 24 h. Blood samples were weighed, radioactivity was counted with a standard ^99mTc solution prepared at the time of injection and the percentage injected dose per gram of blood was plotted as a function of time."}, "[7]": {"format": "physicochemical", "experimental": "Stability of ^99mTc-TP3654 To measure the in vitro stability of ^99mTc-TP3654, a known quantity of the preparation was incubated at 37° C. for 24 h, with 100 molar excess of DTPA, HSA or cysteine. At 0, 5 and 24 h, samples were withdrawn for HPLC analysis and the radioactivity that was associated with the challenging agent and that remained as ^99mTc-TP3654 (Rt=11.8 min) was measured."}, "[8]": {"test_system": "LS174T human colorectal tumor", "settings": "athymic NCr nude, mouse, in vivo, iv, 24 h", "method": "Tissue Distribution Studies\nas §1, §2, §3, §4, §5"}, "[9]": {"test": "in vivo", "settings": "athymic NCr nude, mouse, iv, total radioactivity; for tissue uptake at 4 h / tissue uptake at 24 h: Biodistribution", "method": "Tissue Distribution Studies\nas §1, §2, §3, §4, §5"}, "[10]": {"test": "in vivo", "settings": "rat, total radioactivity"}}, "note": "“Also recorded” adds a separate entry of the source. Square brackets hold non-standard residues; d marks the D form. Ends that are not written are not given here. Peptide text beside a SMILES is read from it. GABA = NCCCC(=O)O", "data": [{"compound": "I-123 labeled VIP: I-123 labeled vasoactive intestinal peptide (VIP)", "values": [{"measurement": "positive scans in patients with colonic adenocarcinoma", "setting": "[1]; 17 patients", "value": "17 out of 17"}, {"measurement": "lung uptake", "setting": "[1]; human, in vivo", "value": "approximately 25%"}, {"measurement": "effectiveness in imaging colorectal adenocarcinoma", "setting": "[1]; patients", "value": 100, "unit": "%"}, {"measurement": "effectiveness in imaging in patients with liver metastases", "setting": "[1]; patients", "value": 83, "unit": "%"}, {"measurement": "imaging of lung metastases", "setting": "[1]; patients", "value": 66, "unit": "%"}]}, {"compound": "CPTA-VIP: VIP conjugated with the chelating agent CPTA, [4-(1,4,8,11-tetraazacyclotetradec-1-yl)methyl] benzoic acid (HSDAVFTDNYTRLRKQMAVKKYLNSILN; ends and bridges not checked; also: conjugated with chelator CPTA, position not given here; UniProt P01282 125-152, looked up)", "values": [{"measurement": "muscle relaxivity (fall in resting IAS tension)", "setting": "[2]", "value": 35, "unit": "%"}]}, {"compound": "C[C@@H](NC(=O)CN)C(=O)NCC(=O)NCC(=O)NCCCC(=O)O", "note": "[^99mTc-G(D)AGG-Aba, metal not drawn] (H-G[dA]GG[GABA]-OH; N-terminus and C-terminus assumed)", "values": [{"measurement": "tissue uptake at 24 h", "setting": "[3]; blood, nude mice bearing LS174T tumors", "value": 0.03, "unit": "%ID/g"}, {"measurement": "tissue uptake at 24 h", "setting": "[3]; heart, nude mice bearing LS174T tumors", "value": 0.01, "unit": "%ID/g"}, {"measurement": "tissue uptake at 24 h", "setting": "[3]; kidney, nude mice bearing LS174T tumors", "value": "0.2 ± 0.02", "unit": "%ID/g"}, {"measurement": "tissue uptake at 24 h", "setting": "[3]; liver, nude mice bearing LS174T tumors", "value": "0.16 ± 0.02", "unit": "%ID/g"}, {"measurement": "tissue uptake at 24 h", "setting": "[3]; lung, nude mice bearing LS174T tumors", "value": 0.03, "unit": "%ID/g"}, {"measurement": "tissue uptake at 24 h", "setting": "[3]; muscle, nude mice bearing LS174T tumors", "value": 0.01, "unit": "%ID/g"}, {"measurement": "tissue uptake at 24 h", "setting": "[3]; small intestine, nude mice bearing LS174T tumors", "value": "0.03 ± 0.01", "unit": "%ID/g"}, {"measurement": "tissue uptake at 24 h", "setting": "[3]; spleen, nude mice bearing LS174T tumors", "value": "0.06 ± 0.03", "unit": "%ID/g"}, {"measurement": "tissue uptake at 24 h", "setting": "[3]; tumor, LS174T tumor, nude mice", "value": 0.03, "unit": "%ID/g"}, {"measurement": "tissue to tissue ratio at 24 h", "setting": "[3]; tumor/blood, T/B ratio (tumor-to-blood), nude mice bearing LS174T tumors", "value": "0.77 ± 0.03"}, {"measurement": "tissue to tissue ratio at 24 h", "setting": "[3]; tumor/muscle, T/M ratio (tumor-to-muscle), nude mice bearing LS174T tumors", "value": "1.88 ± 0.36"}, {"measurement": "Biodistribution, Kidney", "setting": "[4]; kidney, 24 h postinjection, nude mice bearing LS174T tumors, mean ± SD, n = 5", "value": "0.2±0.02", "unit": "% ID/g"}, {"measurement": "delineation of tumor in gamma camera image", "setting": "[4]", "value": "not delineated"}, {"measurement": "delineation of tumor in gamma camera image", "setting": "[4]; listed as 99mTc-G(D)AGG", "value": "not"}]}, {"compound": "CC[C@H](C)[C@H](NC(=O)[C@H](CO)NC(=O)[C@H](CC(N)=O)NC(=O)[C@H](CC(C)C)NC(=O)[C@H](Cc1ccc(O)cc1)NC(=O)[C@H](CCCCN)NC(=O)[C@H](CCCCN)NC(=O)[C@@H](NC(=O)[C@H](C)NC(=O)[C@H](CCSC)NC(=O)[C@H](CCC(N)=O)NC(=O)[C@H](CCCCN)NC(=O)[C@H](CCCNC(=N)N)NC(=O)[C@H](CC(C)C)NC(=O)[C@H](CCCNC(=N)N)NC(=O)[C@@H](NC(=O)[C@H](Cc1ccc(O)cc1)NC(=O)[C@H](CC(N)=O)NC(=O)[C@H](CC(=O)O)NC(=O)[C@@H](NC(=O)[C@H](Cc1ccccc1)NC(=O)[C@@H](NC(=O)[C@H](C)NC(=O)[C@H](CC(=O)O)NC(=O)[C@H](CO)NC(=O)[C@@H](N)Cc1c[nH]cn1)C(C)C)[C@@H](C)O)[C@@H](C)O)C(C)C)C(=O)N[C@@H](CC(C)C)C(=O)N[C@@H](CC(N)=O)C(=O)NCCCC(=O)NCC(=O)NCC(=O)N[C@H](C)C(=O)NCC(=O)O", "note": "[^99mTc-TP3654, metal not drawn]", "values": [{"measurement": "uptake of ^99mTc-TP3654 after pretreatment with unlabeled TP3654 or VIP", "setting": "[5]", "value": "decreased in all VIP receptor-rich tissues except the kidneys"}, {"measurement": "blood clearance α-t 1/2", "setting": "[6]", "value": "approximately 5 min"}, {"measurement": "blood clearance β-t½", "setting": "[6]", "value": "approximately 120 min"}, {"measurement": "stability on storage (HPLC)", "setting": "[7]", "value": "stable for up to 24 h"}, {"measurement": "radioactivity displaced by challenge with 100 molar excess of DTPA, HSA or cysteine", "setting": "[7]; 24 h of incubation at 37° C.", "value": "approximately 11%"}, {"measurement": "Biodistribution, Tumor", "setting": "[8]", "value": "0.23 ± 0.13", "unit": "% ID/g"}, {"measurement": "tissue uptake at 4 h", "setting": "[9]; Blood", "value": "0.21 ± 0.02", "unit": "%ID/g"}, {"measurement": "tissue uptake at 24 h", "setting": "[9]; Blood", "value": "0.12 ± 0.02", "unit": "%ID/g"}, {"measurement": "tissue uptake at 4 h", "setting": "[9]; Heart", "value": 0.1, "unit": "%ID/g"}, {"measurement": "tissue uptake at 24 h", "setting": "[9]; Heart", "value": "0.06 ± 0.01", "unit": "%ID/g"}, {"measurement": "tissue uptake at 4 h", "setting": "[9]; Kidney", "value": "19 ± 3.75", "unit": "%ID/g"}, {"measurement": "tissue uptake at 24 h", "setting": "[9]; Kidney", "value": "3.52 ± 0.4", "unit": "%ID/g"}, {"measurement": "tissue uptake at 4 h", "setting": "[9]; Liver", "value": "1.12 ± 0.08", "unit": "%ID/g"}, {"measurement": "tissue uptake at 24 h", "setting": "[9]; Liver", "value": "0.33 ± 0.04", "unit": "%ID/g"}, {"measurement": "tissue uptake at 4 h", "setting": "[9]; Lung", "value": "0.17 ± 0.01", "unit": "%ID/g"}, {"measurement": "tissue uptake at 24 h", "setting": "[9]; Lung", "value": "0.16 ± 0.09", "unit": "%ID/g"}, {"measurement": "tissue uptake at 4 h", "setting": "[9]; Muscle", "value": "0.09 ± 0.01", "unit": "%ID/g"}, {"measurement": "tissue uptake at 24 h", "setting": "[9]; Muscle", "value": "0.04 ± 0.01", "unit": "%ID/g"}, {"measurement": "tissue uptake at 4 h", "setting": "[9]; Small intestine", "value": "0.18 ± 0.05", "unit": "%ID/g"}, {"measurement": "tissue uptake at 24 h", "setting": "[9]; Small intestine", "value": "0.05 ± 0.01", "unit": "%ID/g"}, {"measurement": "tissue uptake at 4 h", "setting": "[9]; Spleen", "value": "0.19 ± 0.05", "unit": "%ID/g"}, {"measurement": "tissue uptake at 24 h", "setting": "[9]; Spleen", "value": "0.11 ± 0.02", "unit": "%ID/g"}, {"measurement": "tissue uptake at 4 h", "setting": "[9]; Tumor", "value": "0.24 ± 0.06", "unit": "%ID/g"}, {"measurement": "tissue uptake at 24 h", "setting": "[9]; Tumor", "value": 0.2, "unit": "%ID/g"}, {"measurement": "tissue to tissue ratio at 4 h", "setting": "[9]; T/B ratio (tumor-to-blood)", "value": "1.16 ± 0.29"}, {"measurement": "tissue to tissue ratio at 24 h", "setting": "[9]; T/B ratio (tumor-to-blood)", "value": "1.98 ± 1.44"}, {"measurement": "tissue to tissue ratio at 4 h", "setting": "[9]; T/M ratio (tumor-to-muscle)", "value": "2.73 ± 1.09"}, {"measurement": "tissue to tissue ratio at 24 h", "setting": "[9]; T/M ratio (tumor-to-muscle)", "value": "6.28 ± 3.09"}, {"measurement": "tissue uptake at 4 h", "setting": "[10]", "value": "0.73 ± 0.12", "unit": "%ID/g"}, {"measurement": "delineation of tumor in gamma camera image", "setting": "[4]", "value": "delineates the tumor and both kidneys; also recorded: clearly delineated"}]}]}
